The values below come from article PMC12040169 (PLOS Biology, 2025).

This series in a line: in vitro. Particulars: human, hela cells, % viability.
Turning to `COc1ccc(NC(=O)CC2SC(NC3CCCCC3)=NC2=O)c(OC)c1` (centres unmarked) [CBK059502], the viability – broadly, a read-out of living cells in per cent, often relative to untreated cells – at 28.5 h, 10 µM turned out to be 93.7%.

Turning to `COc1ccc2[nH]c3c(c2c1)CCNC31CCN(CCCN2C(=O)C3CCCCC3C2=O)C1` (centres unmarked) [CBK059518], the viability at 28.5 h, 10 µM was determined as 88.9%. Take `O=C(CN1CCOCC1)NC1(c2ccccc2)CCCCC1` [CBK059545C]: the viability at 28.5 h, 10 µM was 85.6%. With `Cc1ccc(C)c(NC(=O)N2CCC3(CCc4nccc(C)c4C3=O)CC2)c1` [CBK059554] the figure was 91.6%; with `Cc1ccnc2c1C(=O)C1(CC2)CCN(S(=O)(=O)c2c(C)noc2C)CC1` [CBK059557T], 80.4%. With `CNC1CCC2(c3ccc(OC)c(OC)c3)CCN(C)C2C1` (centres unmarked) [CBK059586C] the figure was 87.3%.

For the molecule `O=C(NC(c1ccc(Cl)cc1)c1cnccn1)C1CCN(C(=O)N2CCOCC2)CC1` (centres unmarked) [CBK059635], the viability at 28.5 h, 10 µM was 96.7%. With `Cc1cc(C(=O)N2CCC(C(=O)NC(c3ccccc3)c3ccc4ccccc4n3)CC2)no1` (centres unmarked) [CBK059641] the figure was 100%. With `COc1ccccc1C(NC(=O)C1CCN(C(=O)OC(C)C)CC1)c1ccccn1` (centres unmarked) [CBK059649] the figure was 111%; with `Cc1ccc(C(=O)N2CCC(C(=O)NC(c3ccccc3)c3ccc4ccccc4n3)CC2)cc1` (centres unmarked) [CBK059663], 87.9%; with `CC(C)COC(=O)N1CCC(C(=O)NC(c2ccc(Cl)cc2)c2cnccn2)CC1` (centres unmarked) [CBK059668], 99.2%. The figure for `Cc1ccccc1C(NC(=O)C1CCN(C(=O)CCC2CCCC2)CC1)c1ccccn1` (centres unmarked) [CBK059677] is 90.5%. On to `COCCOC(=O)N1CCC(C(=O)NC(c2ccc(Cl)cc2)c2cccs2)CC1` (centres unmarked) [CBK059702], for which the viability at 28.5 h, 10 µM stood at 104%. With `COc1ccc(C(NC(=O)C2CCN(C(=O)OC(C)C)CC2)c2ccccc2C)cn1` (centres unmarked) [CBK059704] the figure was 101%. In the case of `O=C(NC(c1ccc(F)cc1)c1ccccn1)C1CCN(C(=O)c2ccno2)CC1` (centres unmarked) [CBK059705], the viability at 28.5 h, 10 µM was found to be 99.9%. The figure for `O=C(NC(c1ccc(Cl)cc1)c1cccnc1)C1CCN(C(=O)c2ccco2)CC1` (centres unmarked) [CBK059708] is 92.4%; for `COc1ccc(C(NC(=O)C2CCN(C(=O)Oc3ccccc3)CC2)c2ccccc2C)cn1` (centres unmarked) [CBK059715] it is 91.1%. The figure for `COc1ccc(C(NC(=O)C2CCN(C(=O)C(C)(C)C)CC2)c2cnccn2)cc1` (centres unmarked) [CBK059791] is 97%. With `Cc1cc(C(=O)N2CCC(C(=O)NC(c3cnccn3)c3ccccc3C)CC2)no1` (centres unmarked) [CBK059810] the figure was 93.6%. In the case of `CN(C(=O)N1CCC(C(=O)NC(c2ccccc2)c2ccco2)CC1)c1ccccc1` (centres unmarked) [CBK059877], the viability at 28.5 h, 10 µM stood at 89%. In the case of `CC(=O)N1CCC(C(=O)NC(c2ccc3c(c2)OCO3)c2cccs2)CC1` (centres unmarked) [CBK059881], the viability at 28.5 h, 10 µM is 101%. As for `O=C(NC(c1ccccc1)c1ccco1)C1CCN(C(=O)CCC2CCCC2)CC1` (centres unmarked) [CBK059887], the viability at 28.5 h, 10 µM was 90.4%.

As to `CS(=O)(=O)N1CCC(C(=O)NC(c2ccccc2)c2cnccn2)CC1` (centres unmarked) [CBK059901], the viability at 28.5 h, 10 µM worked out at 105%. The figure for `COc1cccc(C(NC(=O)C2CCN(C(=O)c3ccccc3)CC2)c2ccccn2)c1` (centres unmarked) [CBK060036] is 103%.

On to `O=C(NC(c1ccc(Cl)cc1)c1ccsc1)C1CCN(C(=O)Oc2ccc(Cl)cc2)CC1` (centres unmarked) [CBK060044], for which the viability at 28.5 h, 10 µM was 88.5%. With `Cc1cccnc1C(c1ccc(F)cc1)N(C)C(=O)C1CCN(C(=O)OCc2ccccc2)CC1` (centres unmarked) [CBK060095] the figure was 116%; with `Cc1cccnc1C(NC(=O)C1CCN(C(=O)N2CCCC2)CC1)c1cccs1` (centres unmarked) [CBK060124], 106%. With `Cc1cccnc1C(NC(=O)C1CCN(S(=O)(=O)c2cccs2)CC1)c1cccs1` (centres unmarked) [CBK060147], the viability at 28.5 h, 10 µM is 111%.

Consider `O=C(NC(c1ccccn1)c1cccs1)C1CCN(S(=O)(=O)c2ccc(C(F)(F)F)cc2)CC1` (centres unmarked) [CBK060153], for which the viability at 28.5 h, 10 µM was 92.4%.
